Reference: patent US20150315241A1, “Antibiotic Peptides” (priority 2007, published 2015)
Values after ≈ are worked out from the molar mass of the structure shown. Where two headings read alike, the source gives them in different places. Where a SMILES comes first, the peptide text is derived from it. [ ]: non-standard residue; d: D form. Hyp = O=C(O)[C@@H]1C[C@@H](O)CN1; Cit = NC(=O)NCCC[C@H](N)C(=O)O; Orn = NCCC[C@H](N)C(=O)O

What was measured:
E. coli BL 21 AI = assay: Growth inhibition assay (MIC); format: cell-based, Escherichia coli; conditions: 1% TSB, 37° C., 20 hrs
Description: (§1) The minimal inhibition concentrations (MIC) of the apidaecin-derived peptides and peptide-derivatives were determined by a growth inhibition assay using a serial peptide dilution in sterilized round-bottom 96-well plates (polystyrene, U-bottom, Greiner Bio-One GmbH) with a final volume of 100 μL per well. The bacteria, e.g., E. coli BL21 A1, were grown in nutrient broth (NB, Carl Roth GmbH+Co. KG, Karlsruhe, Germany) at 37° C. over night. To each well of the 96-well plate, 50 μL of the overnight culture adjusted to 5×10^6 CFU/mL in 1% TSB were added. Lyophilized peptides and peptidomimetics were dissolved in 1% TSB (tryptic soy broth) or water to give a final concentration of 250 μg/mL. Fifty μL of the peptide or peptidomimetics solution were added to the first well of a row on the plate and mixed. Fifty μL of the first well containing the peptide solution were transferred to the second well, mixed and again 50 μL transferred to the next well and so on. Thereby, a two-fold dilution series was obtained starting at 250 μg/mL in the first well down to 120 ng/mL in the 12th well of a row giving a final peptide or peptidomimetics concentration from 125 μg/mL (well 1) to 60 ng/mL (well 12). Plates were incubated at 37° C. for 20 hrs. The absorbance was measured at 595 nm using a TECAN micro plate spectrophotometer (Tecan, Germany). All peptides and peptidomimetics were measured in triplicates. Sterilized water was used as a negative control.
(§2) The bacteria strains were tested: • Eschericha coli 1103, 10233, BL 21 AI, DC 2, • Klebsiella pneumoniae 681, • Micrococcus luteus ATCC 10240, • Mycobacterium vaccae • Bactillus subtillis 347.

M. luteus ATCC 10240 = format: cell-based, Micrococcus luteus
Description: as §1, §2

Row | Compound | MIC E. coli BL 21 AI (E. coli BL 21 AI) [µg/mL] | MIC M. luteus ATCC 10240 (M. luteus ATCC 10240; 1% TSB, 37° C., 20 hrs) [µg/mL] | MIC M. luteus ATCC 10240 (M. luteus ATCC 10240; ATCC 10240, 20 h) [µg/mL]
1 | CC[C@H](C)[C@H](NC(=O)[C@H](CCCNC(=N)N)NC(=O)[C@@H]1CCCN1C(=O)[C@H](Cc1c[nH]cn1)NC(=O)[C@@H]1CCCN1C(=O)[C@@H]1CCCN1C(=O)[C@H](CCCNC(=N)N)NC(=O)[C@@H]1CCCN1C(=O)[C@H](CCCNC(N)=O)NC(=O)[C@@H]1CCCN1C(=O)[C@@H](NC(=O)[C@H](Cc1ccc(O)cc1)NC(=O)[C@@H](NC(=O)[C@@H]1CCCN1C(=O)[C@H](CCCNC(=N)N)NC(=O)[C@H](CC(N)=O)NC(=O)[C@H](CC(N)=O)NC(=O)CN)C(C)C)[C@@H](C)CC)C(N)=O [compound 89] (H-GNNRPVYIP[Cit]PRPPHPRI-NH2) | 1.95 (≈ 0.913 µM) | 15.63 (≈ 7.32 µM) | –
2 | CC[C@H](C)[C@H](NC(=O)[C@H](CCCNC(=N)N)NC(=O)[C@@H]1CCCN1C(=O)[C@H](Cc1c[nH]cn1)NC(=O)[C@@H]1CCCN1C(=O)[C@@H]1CCCN1C(=O)[C@H](CCCNC(=N)N)NC(=O)[C@@H]1C[C@@H](O)CN1C(=O)[C@H](CCCNC(N)=O)NC(=O)[C@@H]1CCCN1C(=O)[C@@H](NC(=O)[C@H](Cc1ccc(O)cc1)NC(=O)[C@@H](NC(=O)[C@@H]1CCCN1C(=O)[C@H](CCCNC(=N)N)NC(=O)[C@H](CC(N)=O)NC(=O)[C@H](CC(N)=O)NC(=O)CN)C(C)C)[C@@H](C)CC)C(N)=O [compound 91] (H-GNNRPVYIP[Cit][Hyp]RPPHPRI-NH2) | 1.95 (≈ 0.906 µM) | 7.81 (≈ 3.63 µM) | –
3 | CC[C@H](C)[C@H](NC(=O)[C@H](Cc1ccc(O)cc1)NC(=O)[C@@H](NC(=O)[C@@H]1CCCN1C(=O)[C@H](CCCNC(=N)N)NC(=O)[C@H](CC(N)=O)NC(=O)[C@H](CC(N)=O)NC(=O)[C@@H](N)CCCN)C(C)C)C(=O)N1CCC[C@H]1C(=O)N[C@@H](CCCN)C(=O)N1C[C@H](O)C[C@H]1C(=O)N[C@@H](CCCNC(=N)N)C(=O)N1CCC[C@H]1C(=O)N1CCC[C@H]1C(=O)N[C@@H](Cc1c[nH]cn1)C(=O)N1CCC[C@H]1C(=O)N[C@@H](CCCNC(=N)N)C(=O)N[C@@H](CC(C)C)C(N)=O [compound 102] (H-[Orn]NNRPVYIP[Orn][Hyp]RPPHPRL-NH2) | 1.95 (≈ 0.9 µM) | 1.95 (≈ 0.9 µM) | –
4 | CC[C@H](C)[C@H](NC(=O)[C@H](Cc1ccc(O)cc1)NC(=O)[C@@H](NC(=O)[C@@H]1CCCN1C(=O)[C@H](CCCNC(=N)N)NC(=O)[C@H](CC(N)=O)NC(=O)[C@H](CC(N)=O)NC(=O)[C@H](CCCN)NC(C)=O)C(C)C)C(=O)N1CCC[C@H]1C(=O)N[C@@H](CCCN)C(=O)N1C[C@H](O)C[C@H]1C(=O)N[C@@H](CCCNC(=N)N)C(=O)N1CCC[C@H]1C(=O)N1CCC[C@H]1C(=O)N[C@@H](Cc1c[nH]cn1)C(=O)N1CCC[C@H]1C(=O)N[C@@H](CCCNC(=N)N)C(=O)N[C@@H](CC(C)C)C(N)=O [compound 103] (Ac-[Orn]NNRPVYIP[Orn][Hyp]RPPHPRL-NH2) | 1.95 (≈ 0.883 µM) | 3.91 (≈ 1.77 µM) | –
5 | CC[C@H](C)[C@H](NC(=O)[C@H](Cc1ccc(O)cc1)NC(=O)[C@@H](NC(=O)[C@@H]1CCCN1C(=O)[C@H](CCCNC(=N)N)NC(=O)[C@H](CC(N)=O)NC(=O)[C@H](CC(N)=O)NC(=O)[C@@H](N)CCCN)C(C)C)C(=O)N1CCC[C@H]1C(=O)N[C@@H](CCCNC(=N)N)C(=O)N1CCC[C@H]1C(=O)N[C@@H](CCCNC(=N)N)C(=O)N1CCC[C@H]1C(=O)N1CCC[C@H]1C(=O)N[C@@H](Cc1c[nH]cn1)C(=O)N1CCC[C@H]1C(=O)N[C@@H](CCCNC(N)=O)C(=O)N[C@@H](CC(C)C)C(N)=O [compound 138] (H-[Orn]NNRPVYIPRPRPPHP[Cit]L-NH2) | 64 (≈ 29.2 µM) | – | 64 (≈ 29.2 µM)
6 | CC[C@H](C)[C@H](NC(=O)[C@H](Cc1ccc(O)cc1)NC(=O)[C@@H](NC(=O)[C@@H]1CCCN1C(=O)[C@H](CCCNC(=N)N)NC(=O)[C@H](CC(N)=O)NC(=O)[C@H](CC(N)=O)NC(=O)CNC(C)=O)C(C)C)C(=O)N1CCC[C@H]1C(=O)N[C@@H](CCC(N)=O)C(=O)N1CCC[C@H]1C(=O)N[C@@H](CCCNC(=N)N)C(=O)N1CCC[C@H]1C(=O)N1CCC[C@H]1C(=O)N[C@@H](Cc1c[nH]cn1)C(=O)N1CCC[C@H]1C(=O)N[C@@H](CCCNC(N)=O)C(=O)N[C@@H](CC(C)C)C(N)=O [compound 148] (Ac-GNNRPVYIPQPRPPHP[Cit]L-NH2) | >125 | – | >125
7 | CC[C@H](C)[C@H](NC(=O)[C@H](Cc1ccc(O)cc1)NC(=O)[C@@H](NC(=O)[C@@H]1CCCN1C(=O)[C@H](CCCNC(=N)N)NC(=O)[C@H](CC(N)=O)NC(=O)[C@H](CC(N)=O)NC(=O)[C@H](CCCN)NC(C)=O)C(C)C)C(=O)N1CCC[C@H]1C(=O)N[C@@H](CCCNC(=N)N)C(=O)N1CCC[C@H]1C(=O)N[C@@H](CCCNC(=N)N)C(=O)N1CCC[C@H]1C(=O)N1CCC[C@H]1C(=O)N[C@@H](Cc1c[nH]cn1)C(=O)N1CCC[C@H]1C(=O)N[C@@H](CCCNC(N)=O)C(=O)N[C@@H](CC(C)C)C(N)=O [compound 150] (Ac-[Orn]NNRPVYIPRPRPPHP[Cit]L-NH2) | 32 (≈ 14.3 µM) | – | 32 (≈ 14.3 µM)
8 | CC[C@H](C)[C@H](NC(=O)[C@H](Cc1ccc(O)cc1)NC(=O)[C@@H](NC(=O)[C@@H]1CCCN1C(=O)[C@H](CCCNC(=N)N)NC(=O)[C@H](CC(N)=O)NC(=O)[C@H](CC(N)=O)NC(=O)[C@H](CCCN)NC(C)=O)C(C)C)C(=O)N1CCC[C@H]1C(=O)N[C@@H](CCCNC(=N)N)C(=O)N1CCC[C@H]1C(=O)N[C@@H](CCCNC(=N)N)C(=O)N1CCC[C@H]1C(=O)N1CCC[C@H]1C(=O)N[C@@H](Cc1c[nH]cn1)C(=O)N1CCC[C@H]1C(=O)N[C@H](CCCNC(=N)N)C(=O)N[C@@H](CC(C)C)C(N)=O [compound 152] (Ac-[Orn]NNRPVYIPRPRPPHP[dR]L-NH2) | 32 (≈ 14.3 µM) | – | 32 (≈ 14.3 µM)
